Test results: PMC6914834, “New Dihydroisocoumarin Root Growth Inhibitors From the Sponge-Derived Fungus Aspergillus sp. NBUF87” (Frontiers in Microbiology, 2019)
Values after ≈ are worked out from the molar mass of the structure shown. Like-named read-outs stand apart in the source and are kept apart here.

Assays:
CCRF-CEM = assay: In vitro cancer cell cytotoxicity (MTT), CCRF-CEM; type: cell-based; settings: Homo sapiens, positive control, quantity not given
Procedure: (§1) 7-Ethyl-10-hydroxycamptothecin (1.3, 10.8, 9.9, and 4.2 nM, respectively) was used as the positive control against four above-mentioned human cancer cell lines.

MDA-MB-231 = assay: In vitro cancer cell cytotoxicity (MTT), MDA-MB-231; settings: Homo sapiens, MDA-MB-231, read-out: cytotoxicity of positive control, MDA-MB-231
HCT-116 = assay: In vitro cancer cell cytotoxicity (MTT), HCT-116; type: cell-based; settings: Homo sapiens, positive control, quantity not given
Procedure: as §1

AGS = assay: In vitro cancer cell cytotoxicity (MTT), AGS; type: cell-based; settings: Homo sapiens, positive control, quantity not given
Procedure: as §1

Plasmodium falciparum W2 = assay: In vitro antimalarial activity assay; type: cell-based
Procedure: The in vitro antimalarial activity of the compounds was evaluated against the parasite (Plasmodium falciparum W2), which was cultured continuously according to a previously described method ([Lazaro et al., 2006]).

[1] = system: methicillin-resistant Staphylococcus aureus ATCC43300; assay: Antibacterial activity assay, MRSA; type: cell-based; settings: 96-well plates, read-out: MIC, methicillin-resistant S. aureus ATCC43300
Procedure: Compounds 1−11 were evaluated for their antibacterial activities against methicillin-resistant Staphylococcus aureus ATCC43300 and Escherichia coli ATCC25922 in 96-well plates according to the method described by [Gu et al. (2018)]. Ciprofloxacin was selected as a positive control against the above-mentioned bacteria with MIC values of 0.5 μg/mL.

[2] = system: Arabidopsis thaliana Columbia-0 (Col-0); assay: Plant growth response assay (root growth); type: in vivo; settings: 100 μM
Procedure: Arabidopsis thaliana Col-0, a model organism for plant growth and development, was used to test each isolated compound according to a previously described protocol ([Li X. et al., 2018]; [Huang et al., 2019]). Plants grown in 2% (v/v) DMSO were used as the negative control. Seeds of Col-0 incubated in 1 μM of 6-benzylaminopurine (BAP) were selected as the positive control. Test samples were dissolved in 2% (v/v) DMSO at various test concentrations for the experiment.

[3] = W2, in vitro, positive controls, read-out: EC50, P. falciparum W2 (positive controls)

SMILES: CCc1c2c(nc3ccc(O)cc13)-c1cc3c(c(=O)n1C2)COC(=O)[C@]3(O)CC [7-Ethyl-10-hydroxycamptothecin]
- IC50 (CCRF-CEM): 1.3 nM
- IC50 (MDA-MB-231): 10.8 nM
- IC50 (HCT-116): 9.9 nM
- IC50 (AGS): 4.2 nM

SMILES: CCN(CC)CCCC(C)Nc1ccnc2cc(Cl)ccc12 (stereo not shown) [Chloroquine]
- EC50 (Plasmodium falciparum W2; W2, read-out: EC50, P. falciparum W2 (positive controls)): 112 nM

SMILES: O=C(O)c1cn(C2CC2)c2cc(N3CCNCC3)c(F)cc2c1=O [Ciprofloxacin]
- MIC [1]: 0.5 µg/mL (≈ 1.51 µM)

SMILES: C[C@H](O)CCC[C@@H]1Cc2c(O)ccc(O)c2C(=O)O1 [Compound 1, aspergimarin A]
- root growth inhibitory activity in plant growth response assay [2]: root growth inhibitory activity was observed
- inhibitory effect on lateral root growth of Col-0 ([2]; 10 days after seed germination): significant inhibitory effect

SMILES: C[C@H](O)CCC[C@H]1OC(=O)c2c(O)cccc2[C@@H]1O [Compound 5, aspergimarin E]
- root growth inhibitory activity in plant growth response assay [2]: root growth inhibitory activity was observed
- inhibition of primary root growth of Col-0 ([2]; 10 days after seed germination): notable inhibition
- inhibitory effect on lateral root growth of Col-0 ([2]; 10 days after seed germination): notable inhibition

SMILES: C[C@@H]1CC[C@H]2[C@@H](C)C(=O)O[C@@H]3O[C@@]4(C)CC[C@@H]1[C@]32OO4 [artemisinin]
- EC50 (Plasmodium falciparum W2; [3]): 160 nM

SMILES: O=C1C(O)=C([C@H]2CC[C@H](c3ccc(Cl)cc3)CC2)C(=O)c2ccccc21 [atovaquone]
- EC50 (Plasmodium falciparum W2; [3]): 2.5 nM
